The source made the active and inactive calls. The calls are words filed in the database; no cut-off is given here.

From ChEMBL document CHEMBL1125860 (J Med Chem, 1991) come the findings set out here.

Assay [1] has as its system Rattus norvegicus. The experiment in a line: In vivo inhibition of galactitol accumulation in sciatic nerves of rat at 11 mg/kg/day. It is filed as functional. Particulars: Sciatic nerve.
The target of assay [2] is Aldo-keto reductase family 1 member B1 (Bos taurus) (UniProt P16116). The assay is described as follows: In vitro % decrease of aldose reductase was measured in isolated partially purified bovine lens preparations at 10e-7 M concentration; Not active.
Assay [3] has as its system Rattus norvegicus. The assay is described as follows: In vivo inhibition of galactitol accumulation in diaphragm of rat at 11 mg/kg/day. In kind it is functional.
The test system of assay [4] is Rattus norvegicus. The assay is described as follows: In vivo inhibition of galactitol accumulation in sciatic nerves of rat at 32 mg/kg/day. It is filed as functional. The following applies: Sciatic nerve.
Assay [5] deals with Rattus norvegicus. The assay is described as follows: % reduction of aldose reductase inhibition was evaluated by measuring galactitol accumulation in sciatic nerves of rat at 32 mg/kg/day. It is filed as functional. Particulars: Sciatic nerve.
For assay [6], the species on record is Rattus norvegicus. The experiment in a line: In vitro inhibition of sorbitol accumulation was measured in rat sciatic nerves incubated in the presence of 50 mM glucose at 10e-6 M concentration. In kind it is functional, Sciatic nerve.
The test system of assay [7] is Rattus norvegicus. The assay is described as follows: In vivo inhibition of galactitol accumulation in diaphragm of rat at 25 mg/kg/day; […]. In kind it is functional, organism-based.
For assay [8], the system named is Rattus norvegicus. The assay is described as follows: In vivo inhibition of galactitol accumulation in sciatic nerves of rat at 75 mg/kg/day. It is filed as functional. Particulars: Sciatic nerve.
The subject of assay [9] is Rattus norvegicus. The experiment in a line: In vivo inhibition of galactitol accumulation in sciatic nerves of rat at 25 mg/kg/day. In kind it is functional. The following applies: Sciatic nerve.
The test system of assay [10] is Rattus norvegicus. The assay is described as follows: In vivo inhibition of galactitol accumulation in diaphragm of rat at 53 mg/kg/day. It is filed as functional.
The species entered for assay [11] is Rattus norvegicus. The assay is described as follows: In vitro inhibition of sorbitol accumulation was measured in rat sciatic nerves incubated in the presence of 50 mM glucose at 10e-5 M concentration. In kind it is functional, Sciatic nerve.
Assay [12] concerns Rattus norvegicus. The experiment in a line: In vivo inhibition of galactitol accumulation in diaphragm of rat at 75 mg/kg/day. It is filed as functional.
The test system of assay [13] is Rattus norvegicus. The experiment in a line: In vivo inhibition of galactitol accumulation in sciatic nerves of rat at 53 mg/kg/day. It is filed as functional. The following applies: Sciatic nerve.
Assay [14] concerns Rattus norvegicus. The assay is described as follows: In vivo inhibition of galactitol accumulation in sciatic nerves of rat at 123 mg/kg/day. It is filed as functional. Particulars: Sciatic nerve.
Assay [15] concerns Rattus norvegicus. The assay is described as follows: In vivo inhibition of galactitol accumulation in sciatic nerves of rat at 11 mg/kg/day; Not significant. It is filed as functional, organism-based. Particulars: Sciatic nerve.
Assay [16] concerns Rattus norvegicus. The experiment in a line: In vivo inhibition of galactitol accumulation in diaphragm of rat at 123 mg/kg/day. It is filed as functional.
The target in assay [17] is Aldo-keto reductase family 1 member B1 (Bos taurus) (UniProt P16116). The assay is described as follows: In vitro % decrease of aldose reductase measured in isolated partially purified bovine lens preparations at 10e-7 M concentration.
Assay [18] concerns Rattus norvegicus. The assay is described as follows: In vivo inhibition of galactitol accumulation in sciatic nerves of rat at 44 mg/kg/day; Not significant. In kind it is functional, organism-based. The following applies: Sciatic nerve.
The subject of assay [19] is Rattus norvegicus. The experiment in a line: In vivo inhibition of galactitol accumulation in diaphragm of rat at 144 mg/kg. It is filed as functional.
The test system of assay [20] is Rattus norvegicus. The experiment in a line: In vivo inhibition of galactitol accumulation in sciatic nerves of rat at 16 mg/kg/day; Not significant. The following applies: Sciatic nerve. In kind it is functional, organism-based.
For assay [21], the system named is Rattus norvegicus. The assay is described as follows: In vivo inhibition of galactitol accumulation in diaphragm of rat at 16 mg/kg/day. It is filed as functional.
For assay [22], the system named is Rattus norvegicus. The experiment in a line: In vivo inhibition of galactitol accumulation in sciatic nerves of rat at 49 mg/kg/day. In kind it is functional. Particulars: Sciatic nerve.
In assay [23] the test system is Rattus norvegicus. The experiment in a line: In vivo inhibition of galactitol accumulation in sciatic nerves of rat at 26 mg/kg/day. In kind it is functional. Particulars: Sciatic nerve.
For assay [24], the system named is Rattus norvegicus. The assay is described as follows: In vivo inhibition of galactitol accumulation in diaphragm of rat at 49 mg/kg. It is filed as functional.
Assay [25] concerns Rattus norvegicus. The experiment in a line: In vivo inhibition of galactitol accumulation in sciatic nerves of rat at 52 mg/kg/dayC. Particulars: Sciatic nerve. In kind it is functional, organism-based.
For assay [26], the system named is Rattus norvegicus. The experiment in a line: In vivo inhibition of galactitol accumulation in diaphragm of rat at 52 mg/kg/day. In kind it is functional.

Consider `CCN(CC)C(=O)COC(=O)CN(C(=O)OC)C(=O)c1c(F)ccc2c(C(F)(F)F)c(OC)ccc12`, for which the inhibition in vivo at 11 mg/kg/day came to 39% with Rattus norvegicus [1] and 36% with Rattus norvegicus [3]. For the same molecule, in [2], the inhibition entry is “inactive”. Moreover, the inhibition in vivo at 32 mg/kg/day in the assay on Rattus norvegicus [4] and in the assay with Rattus norvegicus [5] was 75% throughout.
As for `COc1ccc2c(C(=O)N(C)CC(=O)O)cccc2c1C(F)(F)F`, the Inhibition is on record as 27% in the assay filed under Rattus norvegicus [6] and 74% in the assay filed under Rattus norvegicus [11]. In addition, the inhibition result with Rattus norvegicus [7] is “inactive”. Besides, the inhibition in vivo at 75 mg/kg/day in the assay on Rattus norvegicus [8] worked out at 56%; in the assay on Rattus norvegicus [12] it was 27%. Further, in the assay on Rattus norvegicus [9], the inhibition in vivo at 25 mg/kg/day worked out at 33%. The inhibition in vivo at 53 mg/kg/day was found to be 94% in the assay on Rattus norvegicus [10] and 93% with Rattus norvegicus [13].
On to `COc1ccc2c(C(=S)N(C)CC(=O)O)cc(C)cc2c1Br`, for which the Inhibition in the assay filed under Rattus norvegicus [6] came to 43%; in the assay filed under Rattus norvegicus [11], 86%. For the same molecule, the inhibition in vivo at 123 mg/kg/day in the assay on Rattus norvegicus [14] was 86%; in the assay on Rattus norvegicus [16] it was 91%. For the same molecule, the inhibition entry in the assay on Rattus norvegicus [15] was “inactive”. Besides, in the assay on Rattus norvegicus [3], the inhibition in vivo at 11 mg/kg/day came to 48%. In addition, in [17], the inhibition worked out at 85%.
On to `COc1ccc2c(C(=O)N(C)CC(=O)O)cc(Cc3ccccc3)cc2c1Br`, for which the Inhibition in the assay filed under Rattus norvegicus [6] is 44%; in the assay listed under Rattus norvegicus [11], 72%. Besides, the inhibition result in the assay with Rattus norvegicus [18] was “inactive”. 144 mg/kg produced 24% inhibition in vivo with Rattus norvegicus [19]. In assay [17], this molecule displayed an inhibition of 74%.
Consider `COC(=O)N(CC(N)=O)C(=O)c1c(F)ccc2c(C(F)(F)F)c(OC)ccc12`, for which the Inhibition in the assay filed under Rattus norvegicus [6] is reported as 4%; in the assay listed under Rattus norvegicus [11] it was 34%. The inhibition result (in the assay with Rattus norvegicus [15]; in assay [2]; in the assay on Rattus norvegicus [20]) was “inactive” throughout. For the same molecule, the inhibition in vivo at 11 mg/kg/day in the assay with Rattus norvegicus [3] is 28%. This molecule also showed an inhibition in vivo at 16 mg/kg/day with Rattus norvegicus [21] of 33%.
The molecule `COc1ccc2c(C(=O)N(C)CC(=O)O)c(Cl)ccc2c1C(F)(F)F` displayed an inhibition in vivo at 49 mg/kg/day in the assay on Rattus norvegicus [22] of 83%. For the same molecule, the results for the Inhibition in the assay listed under Rattus norvegicus [6] and in the assay listed under Rattus norvegicus [11] were 39% and 67%, respectively. In addition, in the assay on Rattus norvegicus [23], the inhibition in vivo at 26 mg/kg/day worked out at 43%. In the assay on Rattus norvegicus [24], this molecule showed an inhibition in vivo at 49 mg/kg of 80%. This molecule also came in with an inhibition in [17] of 63%.
As to `COc1ccc2c(C(=O)N(C)CC(=O)O)ccc(Cc3ccccc3)c2c1Br`, the inhibition result in the assay with Rattus norvegicus [25] was “inactive”. Also, the inhibition in vivo at 52 mg/kg/day in the assay on Rattus norvegicus [26] amounted to 34%. Besides, in [17], the inhibition worked out at 80%.
